The assay relates to Plasmodium falciparum. Nature of the assay: GSK_TCMDC: Inhibition of Plasmodium falciparum 3D7 in whole erythrocytes, using parasite LDH activity as an index of growth. Format: functional, organism-based. Particulars: Plasmodium falciparum, 3D7.

`COc1ccc(Cl)cc1N1CCN(CCCNC(=O)c2ccc(-c3nc4cnccc4[nH]3)c(Br)c2)CC1` yielded an XC50 of 1150 nM.

Compound `C[C@@H]1CC[C@H](NC(=O)[C@H](CC2CCCC2)NC(=O)N2CCNCC2)C(=O)CN1S(=O)(=O)c1ccccn1` had an XC50 of 891 nM.

For the compound `C#CCN(Cc1ccc2[nH]c(N)nc(=O)c2c1)c1ccc(C(=O)N[C@@H](CCC(=O)O)C(=O)O)cc1`, the XC50 stood at 217 nM.

With `Nc1nc(N)c2c(ccc3[nH]c(-c4ccccc4Cl)nc32)n1`, the XC50 came to 231 nM.

Compound `CCc1nnc2sc(-c3cccc(NC(=O)c4ccc(C)c([N+](=O)[O-])c4)c3)nn12` yielded an XC50 of 1410 nM.

Regarding `Cc1nn(-c2cccc(Cl)c2)c2c1C(C(=O)c1ccc3c(c1)OCO3)CC(=O)N2` (stereo not drawn), the XC50 worked out at 371 nM.

Turning to `Fc1cccc(Nc2nc(NCc3ccc4ccsc4c3)nc(Nc3cccc(F)c3)n2)c1`, the XC50 came to 1080 nM.

Consider `O=C(N[C@H]1CCN(Cc2ccc(OC3CCN(Cc4ccccc4)CC3)cc2)C1)c1ccc(Cl)c(Cl)c1`, for which the XC50 came to 728 nM.

Regarding `COc1ccc(CCc2ccc(-c3c(C)[nH]c(C)c(Cl)c3=O)cc2)cc1`, the XC50 amounted to 15.2 nM.

`O=S(=O)(NC1CCN(c2ccnc3cc(Cl)ccc23)C1)c1ccc(C(F)(F)F)cc1` (stereo not drawn) yielded an XC50 of 298 nM.

On to `O=C(Nc1cc(Cl)ccc1-n1cncn1)C1(c2ccccc2)CC1`, for which the XC50 amounted to 455 nM.

In the case of `FC(F)(F)c1ccc2[nH]c(-c3ccc(-c4cccc(CNCCc5ccncc5)c4)s3)nc2c1`, the XC50 amounted to 117 nM.

In turn, `O=C(Nc1ccc(C(=O)N2CCN(CCN3CCN(c4cccc(C(F)(F)F)c4)CC3)CC2)cc1)c1ccc(OC(F)(F)F)cc1` showed an XC50 of 691 nM.

Regarding `CC[C@]1(C)C[C@@H](NC(=O)NC(=O)c2ccc(OC)cc2)[C@]2(C)[C@H](C)CC[C@]3(CCC(=O)[C@H]32)[C@@H](C)[C@@H]1OC(=O)NC(=O)c1ccc(OC)cc1`, the XC50 came to 987 nM.

For the compound `CN1CCCN(c2ccnc3cc4c(cc23)N(C(=O)c2ccc(C(F)(F)F)cc2)CC4)CC1`, the XC50 is 794 nM.

With `COc1ccc2ncc(Cl)c(CCN3CC[C@@H](CNCc4cc5c(cn4)OCS5)C3)c2n1`, the XC50 worked out at 811 nM.

`Cc1cccc(Cn2c(Cc3ccccc3)nnc2Sc2ccc([N+](=O)[O-])c(C#N)c2)c1` yielded an XC50 of 1140 nM.

With `CCCc1cc(N2CCC(c3ccccc3)(N3CCCCC3)CC2)nc(Nc2ccc(OC)cc2)n1`, the XC50 worked out at 1090 nM.

`c1ccc(CN2CCC(NCc3ccc(-c4ccc(CNCc5cccnc5)cn4)cc3)CC2)cc1`: the XC50 is 879 nM.

In turn, `Cc1ccc2nc(C)cc(N/N=C/c3ccc([N+](=O)[O-])cc3)c2c1` displayed an XC50 of 793 nM.

The compound `CCOc1cc(Cc2cnc(N)nc2N)cc(OCC)c1O` showed an XC50 of 1170 nM.

`FC(F)(F)c1ccc2[nH]ccc(=NN=Cc3cccc(Cl)c3)c2c1` gave an XC50 of 825 nM.

`Cc1nc(C)c(-c2ccc(Oc3ccc(Cl)c(Cl)c3)cc2)c(O)c1Cl` had an XC50 of 106 nM.

Consider `O=c1cc(NC[C@H]2CCC[C@@H]2NC2CCCc3c2[nH]c2ccccc32)[nH]c2ccccc12` (stereo partly drawn), for which the XC50 was found to be 786 nM.

Compound `COc1ccc2nccc(N3CCC(NCCNCc4ccc5c(n4)NC(=O)CS5)C3)c2n1` (stereo not drawn) came in with an XC50 of 694 nM.

`CN(C)Cc1c(O)ccc2[nH]c(-c3cccc(F)c3)nc12` showed an XC50 of 1000 nM.

The compound `OC1CCCN(Cc2ccc(-c3cccc(-c4nc5ccccc5[nH]4)c3)cc2)C1` (stereo not drawn) showed an XC50 of 1340 nM.

For the compound `O=C(NC1CCN(CCN2CCC(c3cn(CCO)c4ccccc34)CC2)CC1)c1ccc(-c2ccc(C(F)(F)F)cc2)cc1`, the XC50 worked out at 740 nM.

`Nc1nc2c(cnn2CCCCCCCP(=O)(O)O)c(=O)[nH]1` yielded an XC50 of 469 nM.

The compound `COc1ccc(S(=O)(=O)NCC2CCCN(CCCCCNC(=O)/C=C/c3ccc(Cl)c(Cl)c3)C2)cc1` (stereo not drawn) returned an XC50 of 1060 nM.

Compound `O=P(O)(O)Oc1c(Br)cc(Br)cc1-c1cc(Br)cc(Br)c1O` [BROMOFENOFOS] gave an XC50 of 173 nM.

`CN1CCN(c2ccnc3cc4c(cc23)N(Cc2ccccc2)CC4)CC1` returned an XC50 of 1140 nM.

The compound `CNC(=O)c1ccccc1Nc1nc(Nc2cccc(CS(C)(=O)=O)c2)ncc1C` returned an XC50 of 533 nM.

For the origin of these results see ChEMBL document CHEMBL1157539, “Thousands of chemical starting points for antimalarial lead identification” (Nature, 2010).
